In one assay the target is D(2) dopamine receptor (Homo sapiens, UniProt P14416). The assay can be described thus: Displacement of [3H]spiperone from the cloned human D2 receptor expressed in CHO cells. Type of assay: cell-based.
Assay [1] deals with 5-hydroxytryptamine receptor 1B (Homo sapiens, UniProt P28222). The assay can be described thus: Displacement of [3H]5-HT from the cloned human 5-HT1B receptor expressed in CHO cells. Type of assay: cell-based. On the technique in general: Displacement assays read how much labelled ligand stays bound in the presence of the test substance.
In assay [2] the target is T1, Adrenergic receptor alpha-1 (Rattus norvegicus, UniProt P15823+P23944+P43140).
T1 sequence (P15823 whole entry): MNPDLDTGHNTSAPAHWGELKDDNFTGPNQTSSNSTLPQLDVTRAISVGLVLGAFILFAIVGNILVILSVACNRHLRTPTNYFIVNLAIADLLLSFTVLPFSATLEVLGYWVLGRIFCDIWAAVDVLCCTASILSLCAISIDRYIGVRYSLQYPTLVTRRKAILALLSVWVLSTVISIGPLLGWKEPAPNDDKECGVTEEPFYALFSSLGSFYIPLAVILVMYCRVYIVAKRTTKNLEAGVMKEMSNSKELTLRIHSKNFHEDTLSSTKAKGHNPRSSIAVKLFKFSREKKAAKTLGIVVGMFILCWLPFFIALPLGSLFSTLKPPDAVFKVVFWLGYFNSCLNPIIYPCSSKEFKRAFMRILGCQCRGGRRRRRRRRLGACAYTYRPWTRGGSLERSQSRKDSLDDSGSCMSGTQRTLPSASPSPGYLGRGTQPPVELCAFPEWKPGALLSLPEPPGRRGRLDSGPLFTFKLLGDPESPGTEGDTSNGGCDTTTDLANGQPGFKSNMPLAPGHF
T1 sequence (P23944 whole entry): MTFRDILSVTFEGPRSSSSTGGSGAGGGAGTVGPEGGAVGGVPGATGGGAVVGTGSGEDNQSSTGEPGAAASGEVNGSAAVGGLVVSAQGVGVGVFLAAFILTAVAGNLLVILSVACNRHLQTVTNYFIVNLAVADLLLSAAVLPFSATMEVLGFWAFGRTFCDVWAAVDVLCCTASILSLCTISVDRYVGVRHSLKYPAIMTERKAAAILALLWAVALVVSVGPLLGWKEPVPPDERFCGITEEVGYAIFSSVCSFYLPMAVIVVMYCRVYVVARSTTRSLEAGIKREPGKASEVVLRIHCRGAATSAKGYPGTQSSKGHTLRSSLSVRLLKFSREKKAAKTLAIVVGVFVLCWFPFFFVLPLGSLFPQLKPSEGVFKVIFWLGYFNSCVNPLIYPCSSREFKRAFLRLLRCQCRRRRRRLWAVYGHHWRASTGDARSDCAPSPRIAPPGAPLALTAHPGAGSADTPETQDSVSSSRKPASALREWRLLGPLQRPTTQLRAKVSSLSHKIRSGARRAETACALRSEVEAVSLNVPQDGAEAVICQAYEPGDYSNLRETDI
T1 sequence (P43140 whole entry): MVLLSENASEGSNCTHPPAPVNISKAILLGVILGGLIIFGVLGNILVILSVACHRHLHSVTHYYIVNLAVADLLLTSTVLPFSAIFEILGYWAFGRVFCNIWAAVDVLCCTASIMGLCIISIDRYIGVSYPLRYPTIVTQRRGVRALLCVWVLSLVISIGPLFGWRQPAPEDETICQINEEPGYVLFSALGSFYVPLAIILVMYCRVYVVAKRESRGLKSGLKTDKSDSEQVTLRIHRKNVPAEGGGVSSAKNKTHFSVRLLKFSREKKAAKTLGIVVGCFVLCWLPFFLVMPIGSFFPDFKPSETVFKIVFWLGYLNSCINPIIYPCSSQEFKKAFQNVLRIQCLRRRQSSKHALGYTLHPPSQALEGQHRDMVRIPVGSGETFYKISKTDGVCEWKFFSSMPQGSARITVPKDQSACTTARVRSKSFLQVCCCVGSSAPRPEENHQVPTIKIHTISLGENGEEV
As to the kind of experiment: Displacement of [3H]prazosin from alpha-1 adrenergic receptor in rat cortex.

Assay [3] deals with T2, 5-hydroxytryptamine receptor 7 (Homo sapiens, UniProt P34969). As to the kind of experiment: Activity towards human 5-HT7 receptor at 10 uM relative to 5-CT. Type of assay: functional.
Assay [4] deals with T3, 5-hydroxytryptamine receptor 1A (Homo sapiens, UniProt P08908).
T3 sequence (P08908 whole entry): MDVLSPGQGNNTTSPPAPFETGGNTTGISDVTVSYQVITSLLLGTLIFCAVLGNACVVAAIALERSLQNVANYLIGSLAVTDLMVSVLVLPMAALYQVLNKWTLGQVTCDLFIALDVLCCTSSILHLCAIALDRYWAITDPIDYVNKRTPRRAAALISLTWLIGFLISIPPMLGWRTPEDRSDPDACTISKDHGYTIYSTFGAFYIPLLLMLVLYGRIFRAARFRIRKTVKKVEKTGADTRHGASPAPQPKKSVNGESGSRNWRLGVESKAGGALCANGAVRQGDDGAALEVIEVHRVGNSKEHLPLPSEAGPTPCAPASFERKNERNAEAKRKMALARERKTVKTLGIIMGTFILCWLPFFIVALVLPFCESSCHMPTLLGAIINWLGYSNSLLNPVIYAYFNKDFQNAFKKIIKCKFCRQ
The assay can be described thus: Displacement of [3H]5-HT from the cloned human 5-HT1A receptor expressed in HeLa cells. Type of assay: cell-based.

The target of assay [5] is T2, 5-hydroxytryptamine receptor 7. The assay can be described thus: Displacement of [3H]5-HT from the cloned human 5-HT7 receptor expressed in CHO cells. Type of assay: cell-based.
Assay [6] deals with 5-hydroxytryptamine receptor 2A (Homo sapiens, UniProt P28223). The assay can be described thus: Displacement of [3H]ketanserin from the cloned human 5-HT2A receptor expressed in CHO cells. Type of assay: cell-based.
Assay [7] deals with Voltage-gated inwardly rectifying potassium channel KCNH2 (Homo sapiens, UniProt Q12809). As to the kind of experiment: Displacement of [35S]-labeled MK-499 from cloned human ERG receptor expressed in HEK cells. Type of assay: cell-based, HEK293.
Chain of Voltage-gated inwardly rectifying potassium channel KCNH2 (Q12809 whole entry): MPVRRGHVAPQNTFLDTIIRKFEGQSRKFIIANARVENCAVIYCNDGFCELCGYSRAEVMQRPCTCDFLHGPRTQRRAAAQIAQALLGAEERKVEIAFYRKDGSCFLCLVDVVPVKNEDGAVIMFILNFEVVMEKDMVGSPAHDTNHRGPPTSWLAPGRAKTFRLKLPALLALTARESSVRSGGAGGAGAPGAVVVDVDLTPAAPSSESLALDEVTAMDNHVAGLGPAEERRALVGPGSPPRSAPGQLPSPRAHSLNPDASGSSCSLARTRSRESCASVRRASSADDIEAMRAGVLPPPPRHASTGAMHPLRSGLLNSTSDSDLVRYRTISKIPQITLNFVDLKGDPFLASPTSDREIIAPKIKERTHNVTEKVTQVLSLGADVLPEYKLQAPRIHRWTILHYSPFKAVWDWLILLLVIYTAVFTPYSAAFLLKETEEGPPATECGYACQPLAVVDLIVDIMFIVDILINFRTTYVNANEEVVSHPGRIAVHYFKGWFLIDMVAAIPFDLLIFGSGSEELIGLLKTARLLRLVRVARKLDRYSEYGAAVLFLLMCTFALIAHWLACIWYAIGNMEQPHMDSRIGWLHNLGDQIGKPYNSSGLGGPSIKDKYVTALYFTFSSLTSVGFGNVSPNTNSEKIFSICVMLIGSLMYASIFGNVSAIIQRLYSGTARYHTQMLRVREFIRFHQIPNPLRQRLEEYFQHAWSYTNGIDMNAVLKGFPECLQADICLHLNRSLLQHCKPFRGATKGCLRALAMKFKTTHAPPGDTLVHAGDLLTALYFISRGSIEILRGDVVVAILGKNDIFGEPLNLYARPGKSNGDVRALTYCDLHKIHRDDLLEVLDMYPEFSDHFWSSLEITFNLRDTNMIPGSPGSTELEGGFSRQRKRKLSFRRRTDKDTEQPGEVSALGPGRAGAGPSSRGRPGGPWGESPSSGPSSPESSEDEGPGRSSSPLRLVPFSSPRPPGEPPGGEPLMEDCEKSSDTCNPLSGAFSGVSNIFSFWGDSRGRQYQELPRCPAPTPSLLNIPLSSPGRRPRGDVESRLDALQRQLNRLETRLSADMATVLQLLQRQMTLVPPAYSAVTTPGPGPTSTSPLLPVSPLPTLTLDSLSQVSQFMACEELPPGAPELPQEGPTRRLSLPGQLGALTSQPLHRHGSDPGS

Chain of D(2) dopamine receptor (P14416 whole entry): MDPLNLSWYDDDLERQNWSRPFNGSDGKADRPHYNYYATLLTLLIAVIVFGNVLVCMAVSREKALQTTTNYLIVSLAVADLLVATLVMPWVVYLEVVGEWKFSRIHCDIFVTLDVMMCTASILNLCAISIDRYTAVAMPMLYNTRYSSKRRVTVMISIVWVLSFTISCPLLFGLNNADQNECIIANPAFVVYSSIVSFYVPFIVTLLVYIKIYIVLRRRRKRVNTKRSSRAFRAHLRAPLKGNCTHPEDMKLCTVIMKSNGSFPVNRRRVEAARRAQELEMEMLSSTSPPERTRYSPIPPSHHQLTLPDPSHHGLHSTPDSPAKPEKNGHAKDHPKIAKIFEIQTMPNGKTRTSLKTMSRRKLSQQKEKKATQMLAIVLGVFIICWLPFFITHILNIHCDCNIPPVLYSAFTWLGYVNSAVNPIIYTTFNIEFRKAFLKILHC
T2 sequence (P34969 whole entry): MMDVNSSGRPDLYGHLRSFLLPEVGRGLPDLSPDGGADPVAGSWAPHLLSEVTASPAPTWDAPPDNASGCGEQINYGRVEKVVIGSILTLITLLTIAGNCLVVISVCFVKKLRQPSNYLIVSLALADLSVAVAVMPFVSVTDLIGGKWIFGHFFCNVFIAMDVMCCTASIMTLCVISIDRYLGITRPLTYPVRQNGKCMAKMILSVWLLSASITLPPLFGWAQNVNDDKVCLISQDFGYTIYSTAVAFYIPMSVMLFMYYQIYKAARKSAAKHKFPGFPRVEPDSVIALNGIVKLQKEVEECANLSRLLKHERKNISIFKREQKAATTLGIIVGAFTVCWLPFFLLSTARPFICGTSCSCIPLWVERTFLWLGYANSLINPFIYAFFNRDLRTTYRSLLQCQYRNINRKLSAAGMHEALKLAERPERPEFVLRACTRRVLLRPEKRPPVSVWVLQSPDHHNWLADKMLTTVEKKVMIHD
Chain of 5-hydroxytryptamine receptor 2A (P28223 whole entry): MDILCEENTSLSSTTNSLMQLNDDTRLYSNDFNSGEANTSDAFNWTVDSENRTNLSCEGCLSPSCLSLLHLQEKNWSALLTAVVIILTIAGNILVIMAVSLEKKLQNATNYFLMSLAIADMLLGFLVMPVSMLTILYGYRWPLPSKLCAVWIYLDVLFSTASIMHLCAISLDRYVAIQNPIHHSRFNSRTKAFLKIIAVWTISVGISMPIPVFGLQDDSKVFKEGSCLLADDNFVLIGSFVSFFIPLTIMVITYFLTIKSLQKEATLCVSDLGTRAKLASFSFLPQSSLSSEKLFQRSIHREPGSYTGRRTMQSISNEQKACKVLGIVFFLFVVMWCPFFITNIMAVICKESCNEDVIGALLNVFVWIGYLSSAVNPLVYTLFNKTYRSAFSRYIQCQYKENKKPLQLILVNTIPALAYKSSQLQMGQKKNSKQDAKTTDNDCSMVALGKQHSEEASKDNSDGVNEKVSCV
Chain of 5-hydroxytryptamine receptor 1B (P28222 whole entry): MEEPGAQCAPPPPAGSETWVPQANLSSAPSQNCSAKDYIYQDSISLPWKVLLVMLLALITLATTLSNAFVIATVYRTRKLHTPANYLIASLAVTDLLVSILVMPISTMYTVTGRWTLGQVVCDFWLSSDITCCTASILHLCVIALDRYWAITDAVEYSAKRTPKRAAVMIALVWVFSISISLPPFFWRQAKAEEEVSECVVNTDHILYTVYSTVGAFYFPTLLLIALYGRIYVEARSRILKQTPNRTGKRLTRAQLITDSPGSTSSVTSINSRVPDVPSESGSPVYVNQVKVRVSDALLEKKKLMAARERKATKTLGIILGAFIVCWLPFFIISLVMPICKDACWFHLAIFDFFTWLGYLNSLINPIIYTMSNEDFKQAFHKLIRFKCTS

Regarding `CCOC(=O)[C@@H]1CCCN(CCCC(C)(C)S(=O)(=O)c2ccccc2)C1`, the Ki was 710 nM on D(2) dopamine receptor; over 7000 nM in assay [1]; over 4000 nM⁻¹ in assay [2]; 2400 nM in assay [4]; 24 nM in assay [5]; 1870 nM in assay [6]. The Activity in assay [3] turned out to be 0%.

In assay [3], `O=S(=O)(c1ccccc1)C1(CCCN2CCc3ccccc3C2)CCC1` came in with an Activity of 5%. Further, the Ki stood at 35 nM in assay [4], 8 nM in assay [5] and 65 nM in assay [6].

As to `CCOC(=O)[C@H]1CCCN(CCCC(C)(C)S(=O)(=O)c2ccccc2)C1`, the Ki in assay [5] was found to be 455 nM.

In turn, `CC1CCN(CCCC2(S(=O)(=O)c3ccccc3)CCC2)CC1` returned a Ki in assay [5] of 550 nM.

Regarding `O=S(=O)(c1ccccc1)C1(CCCN2CCN(c3ccccc3)CC2)CCC1`, the Ki in assay [5] amounted to 22 nM.

For `CN(C)CCCC1(S(=O)(=O)c2ccccc2)CCC1`, in assay [5], the Ki is over 7000 nM.

`O=S(=O)(c1ccccc1)C1(CCCN2CCC(c3ccccc3)CC2)CCC1` had a Ki in assay [5] of 26 nM.

Turning to `O=S(=O)(c1ccccc1)C1(CCCN2CCCCC2)CCC1`, the Ki in assay [5] was 2700 nM.

Turning to `O=S(=O)(c1ccccc1)C1(CCCN2CCOCC2)CCC1`, the Ki in assay [5] was over 7000 nM.

As to `CN1CCN(CCCC2(S(=O)(=O)c3ccccc3)CCC2)CC1`, the Ki in assay [5] amounted to 5800 nM.

For the compound `CC(C)(CCCN1CC[C@@H]2CCCC[C@H]2C1)S(=O)(=O)c1ccccc1` (racemic), the Ki at D(2) dopamine receptor was 900 nM; in assay [1], over 7000 nM; in assay [2], 3900 nM⁻¹; in assay [7] it was over 4000 nM; in assay [4], 1500 nM; in assay [5], 8 nM. Besides, the Ki in assay [6] worked out at 2000 nM. The Activity in assay [3] came to 83%.

Turning to `CC(C)(CCCN1CCCC(c2ccccc2)C1)S(=O)(=O)c1ccccc1` (racemic), the Ki at D(2) dopamine receptor is 220 nM; in assay [1], 7700 nM; in assay [2] it was 540 nM⁻¹; in assay [7], over 5000 nM; in assay [4] it was 400 nM; in assay [5], 7 nM. For the same compound, the Ki in assay [6] stood at 1800 nM. Moreover, the Activity in assay [3] is 0%.

In the case of `O=S(=O)(c1ccccc1)C1(CCCCN2CCC(c3ccccc3)C2)CCC1` (racemic), the Ki in assay [5] is 13 nM.

In assay [5], `O=S(=O)(c1ccccc1)C1(CCCN2CCC(c3ccccc3)C2)CCC1` (racemic) had a Ki of 9 nM.

For `O=S(=O)(CCCCN1CCC2CCCCC2C1)c1ccccc1` (racemic), the Ki in assay [5] is 96 nM.

Compound `O=S(=O)(c1ccccc1)C1(CCCN2CCC3CCCCC3C2)CCC1` (racemic) registered an Activity in assay [3] of 39%. For the same compound, the Ki amounted to 210 nM in assay [4], 6 nM in assay [5] and 570 nM in assay [6].

As for `CC(C)(CCCN1CCCC(c2cnco2)C1)S(=O)(=O)c1ccccc1` (racemic), the Ki on D(2) dopamine receptor was 1500 nM; in assay [1], over 5000 nM; in assay [2] it was over 4000 nM⁻¹; in assay [7], over 8000 nM; in assay [4], over 7000 nM; in assay [5] it was 15 nM. Also, in assay [6], the Ki was over 1000 nM. The compound also displayed an Activity in assay [3] of 12%.

On to `CC(C)(CCCN1CCCC(C(F)(F)F)C1)S(=O)(=O)c1ccccc1` (racemic), for which the Ki was over 1000 nM at D(2) dopamine receptor; over 7000 nM in assay [1]; over 4000 nM⁻¹ in assay [2]; over 5000 nM in assay [7]; over 7000 nM in assay [4]; 54 nM in assay [5]. This compound also came in with a Ki in assay [6] of over 2000 nM. The Activity in assay [3] turned out to be 0%.

For the compound `O=S(=O)(c1ccccc1)C1(CCN2CCC(c3ccccc3)C2)CCC1` (racemic), in assay [5], the Ki is 53 nM.

For the origin of these results see ChEMBL document CHEMBL1139656, “Aminoalkyl phenyl sulfones--a novel series of 5-HT7 receptor ligands” (Bioorg Med Chem Lett, 2006).
